The nature of the first series: Lipophilicity, log D of the compound. The conditions noted are these: octanol/water. It is filed as physicochemical.
Turning to `O=C(O)c1ccc(B(O)O)cc1NS(=O)(=O)c1cc(S(=O)(=O)c2ccccc2)cs1`, the log distribution coefficient (logD) (as a rule, the decadic logarithm of the distribution of all forms, ionised or not, between an organic phase and buffer at a given pH) was determined as 0.026.

A short description of a further series: Inhibition of AmpC beta lactamase by spectrophotometry.
Details: not given
As to `Nc1cc(B(O)O)ccc1C(=O)O`, the affinity, expressed as Ki, was 1800 nM.

As for `O=C(O)c1ccc(C(=O)Nc2cccc(S(=O)(=O)Nc3cc(B(O)O)ccc3C(=O)O)c2)cc1`, the affinity, expressed as Ki, was 100 nM.

Turning to `O=C(O)c1ccc(B(O)O)cc1NS(=O)(=O)c1cccc(S(=O)(=O)Nc2cc(B(O)O)ccc2C(=O)O)c1`, the Ki (commonly the equilibrium dissociation constant of an inhibitor or competing ligand from its target) turned out to be 23 nM.

As to `Cc1noc(C)c1S(=O)(=O)Nc1cc(B(O)O)ccc1C(=O)O`, the Ki was found to be 350 nM.

Turning to `O=C(O)c1ccc(C(=O)Nc2ccc(S(=O)(=O)Nc3cccc(B(O)O)c3)cc2)cc1`, the Ki was determined as 450 nM.

`O=S(=O)(Nc1cccc(B(O)O)c1)c1cccc(S(=O)(=O)Nc2cccc(B(O)O)c2)c1` came in with a Ki of 60 nM.

The values are drawn from ChEMBL document CHEMBL1155495, “Structural study of phenyl boronic acid derivatives as AmpC beta-lactamase inhibitors” (Bioorg Med Chem Lett, 2010).
